From ChEMBL document CHEMBL1201862, “PubChem BioAssay data set” (2004)
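Exposure lasted 48 hours, with cells grown in 96-well plates and compounds tested at five concentrations. At the GI50, growth is halved.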 Calls of active or inactive are those of the source. Rule as the data show it: active = GI50 up to about 1.1 µM and inactive = higher.

Assays:
Experiment in all cases: NCI anticancer screen, dose series, 48 h
NCI-H460 = tested on: NCI-H460
OVCAR-5 = tested on: OVCAR-5
PC-3 = tested on: PC-3
RXF 393 = tested on: RXF 393
NCI-H226 = tested on: NCI-H226
HOP-62 = tested on: HOP-62
M14 = tested on: M14
UO-31 = tested on: UO-31
T47D = tested on: T47D
SNB-75 = tested on: SNB-75
KM12 = tested on: KM12
CCRF-CEM = tested on: CCRF-CEM
EKVX = tested on: EKVX
HT-29 = tested on: HT-29
U-251 = tested on: U-251
NCI-H522 = tested on: NCI-H522
HOP-92 = tested on: HOP-92
Malme-3M = tested on: Malme-3M
Hs-578T = tested on: Hs-578T

SMILES	GI50 (NCI-H460)	GI50 (OVCAR-5)	GI50 (PC-3)	GI50 (RXF 393)	GI50 (NCI-H226)	GI50 (HOP-62)	GI50 (M14)	GI50 (UO-31)	GI50 (T47D)	GI50 (SNB-75)	GI50 (KM12)	GI50 (CCRF-CEM)	GI50 (EKVX)	GI50 (HT-29)	GI50 (U-251)	GI50 (NCI-H522)	GI50 (HOP-92)	GI50 (Malme-3M)	GI50 (Hs-578T)
CN(C)CCCN1c2ccccc2C(C)(C)c2ccccc21 [DIMETACRINE]	13.6 µM (inactive)	14.1 µM (inactive)	13.7 µM (inactive)	12.9 µM (inactive)	15.6 µM (inactive)	14.8 µM (inactive)	15.5 µM (inactive)	13.9 µM (inactive)	17.2 µM (inactive)	10.9 µM (inactive)	14.1 µM (inactive)	22.4 µM (inactive)	17.6 µM (inactive)	11.8 µM (inactive)	12.4 µM (inactive)	14.8 µM (inactive)	14.6 µM (inactive)	14.7 µM (inactive)	15.1 µM (inactive)
Nc1ccccc1.O=P(O)(O)c1ccccc1	> 100 µM (inactive)	> 100 µM (inactive)	> 100 µM (inactive)	> 100 µM (inactive)	> 100 µM (inactive)	> 100 µM (inactive)	> 100 µM (inactive)	> 100 µM (inactive)	> 100 µM (inactive)	17.6 µM (inactive)	> 100 µM (inactive)	> 100 µM (inactive)	> 100 µM (inactive)	> 100 µM (inactive)	> 100 µM (inactive)	> 100 µM (inactive)	> 100 µM (inactive)	> 100 µM (inactive)	> 100 µM (inactive)
CCCC(=O)Nc1cn(COC)c(C(=O)N2C[C@H]3C[C@@]34C2=CC(=O)c2[nH]cc(C)c24)n1	3.24 µM (inactive)	12.4 µM (inactive)	12.6 µM (inactive)	8.2 µM (inactive)	9.86 µM (inactive)	7.98 µM (inactive)	8.15 µM (inactive)	10.6 µM (inactive)	1.88 µM (inactive)	4.73 µM (inactive)	> 5 µM (inactive)	0.71 µM (active)	11.2 µM (inactive)	7.35 µM (inactive)	4.42 µM (inactive)	1.65 µM (inactive)	8.05 µM (inactive)	2.44 µM (inactive)	15.4 µM (inactive)
NC(=O)NC(=O)c1ccc(NC(=O)CBr)cc1	4.66 µM (inactive)	2.75 µM (inactive)	1.96 µM (inactive)	1.77 µM (inactive)	3.33 µM (inactive)	1.94 µM (inactive)	11.8 µM (inactive)	1.42 µM (inactive)	1.67 µM (inactive)	1.81 µM (inactive)	4 µM (inactive)	0.0769 µM (active)	2.38 µM (inactive)	1.73 µM (inactive)	0.984 µM (active)	0.128 µM (active)	1.6 µM (inactive)	1.54 µM (inactive)	2.31 µM (inactive)
Cc1cc2[nH]c(Cl)c(/C=C3\C(=O)Nc4ccccc43)c2cc1O	3.91 µM (inactive)	6.46 µM (inactive)	2.2 µM (inactive)	2.25 µM (inactive)	0.542 µM (active)	4.93 µM (inactive)	2.88 µM (inactive)	4.45 µM (inactive)	10.9 µM (inactive)	3.45 µM (inactive)	2.92 µM (inactive)	1.2 µM (inactive)	4.7 µM (inactive)	4.07 µM (inactive)	2.26 µM (inactive)	1.5 µM (inactive)	8.93 µM (inactive)	1.6 µM (inactive)	4.18 µM (inactive)
COc1cc2cc(C(=O)N3CC(COS(C)(=O)=O)c4ccc(NC(=O)OCc5ccccc5)cc43)[nH]c2c(OC)c1OC (centres undefined)	91.8 µM (inactive)	> 100 µM (inactive)	> 100 µM (inactive)	25.2 µM (inactive)	> 100 µM (inactive)	79.1 µM (inactive)	> 100 µM (inactive)	> 100 µM (inactive)	> 100 µM (inactive)	28.9 µM (inactive)	> 100 µM (inactive)	> 100 µM (inactive)	> 100 µM (inactive)	> 100 µM (inactive)	> 100 µM (inactive)	99.1 µM (inactive)	9.59 µM (inactive)	> 100 µM (inactive)	> 100 µM (inactive)
